Data: US7351709B2, “Estrogen receptor ligands” (Wyeth, priority 2004, dated 2008)
Read-outs that look alike come from different tables or passages of the source.

Tests used:
ERα [1] = biological target: T1, ERα (Homo sapiens, UniProt P03372); assay: IL-6 assay: inhibition of IL-1β induced IL-6 expression in ERα infected HAECT-1 cells; assay type: cell-based; settings: for IC50: Ad5-wt-ER infected HAECT-1 cells, IL-1β stimulated, IL-6 by ELISA; for ER/IL-6 % E2: efficacy relative to the maximal inhibition observed with E2
T1 construct: expressed in transfected cells; host or cells: HAECT-1 cells infected with Ad5-wt-ER adenovirus
T1 sequence (P03372 1-595): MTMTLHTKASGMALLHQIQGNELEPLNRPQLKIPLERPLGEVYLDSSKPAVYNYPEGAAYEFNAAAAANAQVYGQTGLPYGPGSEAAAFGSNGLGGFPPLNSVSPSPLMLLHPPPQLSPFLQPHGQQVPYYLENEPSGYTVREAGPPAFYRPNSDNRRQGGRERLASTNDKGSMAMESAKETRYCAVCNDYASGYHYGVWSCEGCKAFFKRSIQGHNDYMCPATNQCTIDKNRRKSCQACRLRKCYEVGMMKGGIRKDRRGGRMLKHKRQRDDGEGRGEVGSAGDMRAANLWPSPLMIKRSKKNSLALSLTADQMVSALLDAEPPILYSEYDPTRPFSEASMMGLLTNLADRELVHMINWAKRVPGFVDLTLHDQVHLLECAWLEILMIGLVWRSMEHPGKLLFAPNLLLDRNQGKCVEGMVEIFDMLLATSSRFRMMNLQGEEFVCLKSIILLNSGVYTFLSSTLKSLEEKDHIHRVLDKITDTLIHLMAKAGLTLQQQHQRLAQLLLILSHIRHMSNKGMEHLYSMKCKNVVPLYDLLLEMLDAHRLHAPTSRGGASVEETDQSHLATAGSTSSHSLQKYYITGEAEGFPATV
Description: (§1) ERα infected HAECT-1 cells or control cells were thawed, diluted 42× in warm EBM-BSA, plated into 96-well plates at 0.1 ml/well and incubated for 4 h at 34° C. Test compounds were added to the cells as 2× stocks in EBM-BSA containing 2 ng/ml IL-1β (R&D Systems) and plates were returned to the incubator (34° C.). After 15-20 h, 100 μl aliquots of media were removed from the cells and assayed for IL-6 content using a BioSource human IL-6 ELISA Kit. Cells were subsequently washed with 300 μl of Dulbecco's phosphate buffered saline and lysed in 50 μl of Cell Culture Lysis Reagent (Promega). Creatine kinase was determined from the rate of increase in A340 following addition of 100 μl of CK assay reagent (Sigma, cat. No 47-10) to the remainder of the cell lysate.
(§2) For IC50 and EC50 calculations, mean IL-6 or CK values versus log10 of the compound concentration were fitted to a four parameter logistic equation. The IC50/EC50 value, ‘Hill slope’, upper and lower limits of the curve were iteratively estimated.

ERα [2] = biological target: T1, ERα; assay: Creatine kinase (CK) assay in ERα infected HAECT-1 cells; assay type: cell-based; settings: for ER/CK % E2: efficacy relative to the maximal stimulation observed with E2
Description: as §1, §2

[3] = Ad5-wt-ER infected HAECT-1 cells, creatine kinase in cell lysate
[4] = cells of the EC50 column printed in uM, read-out: ER/CK EC50

SMILES	IC50 (ERα [1]) [nM]	ER/IL-6 % E2 (ERα [1]) [% E2]	ER/CK EC50 (nM) (ERα [2]; [3])	EC50 (ERα [2]; [4]) [µM]	ER/CK % E2 (ERα [2]) [% E2]	EC50 (ERα [2]; [3]) [µM]
CC[C@H]1C(=O)N(CC)c2ccc(F)cc2N1S(=O)(=O)c1ccc(O)cc1 [Example 26, (3S)-1,3-Diethyl-6-fluoro-4-[(4-hydroxyphenyl)sulfonyl]-3,4-dihydroquinoxalin-2(1H)-one]	339	81	inactive	–	–	–
CC[C@H]1C(=O)N(C)c2ccc(F)cc2N1S(=O)(=O)c1ccc(O)cc1 [Example 25, (3S)-3-Ethyl-6-fluoro-4-[(4-hydroxyphenyl)sulfonyl]-1-methyl-3,4-dihydroquinoxalin-2(1H)-one]	681	108	–	> 3	35	–
CC[C@@H]1C(=O)N(Cc2ccccc2)c2cc(F)ccc2N1C(=O)c1ccc(O)cc1 [Example 2, (3R)-1-Benzyl-3-Ethyl-7-fluoro-4-(4-hydroxybenzoyl)-3,4-dihydroquinoxalin-2(1H)-one]	1230	80	–	> 10	24	–
CC[C@@H]1C(=O)N(C)c2ccc(F)cc2N1C(=O)c1ccc(O)cc1O [Example 19, (3R)-4-(2,4-Dihydroxybenzoyl)-3-ethyl-6-fluoro-1-methyl-3,4-dihydroquinoxalin-2(1H)-one]	5.4	92	–	–	44	0.05
CC[C@@H]1C(=O)N(C)c2cc(F)ccc2N1C(=O)c1cccc(O)c1 [Example 4, (3R)-3-Ethyl-7-fluoro-4-(3-hydroxybenzoyl)-1-methyl-3,4-dihydroquinoxalin-2(1H)-one]	520	57	–	–	19	0.126
CC[C@@H]1C(=O)N(Cc2ccccc2)c2cc(F)ccc2N1C(=O)c1cccc(O)c1 [Example 5, (3R)-1-Benzyl-3-ethyl-7-fluoro-4-(3-hydroxybenzoyl)-3,4-dihydroquinoxalin-2(1H)-one]	542	65	–	–	17	0.255
CC[C@@H]1C(=O)N(CC)c2cc(F)ccc2N1C(=O)c1ccc(O)cc1 [Example 3, (3R)-1,3-Diethyl-7-fluoro-4-(4-hydroxybenzoyl)-3,4-dihydroquinoxalin-2(1H)-one]	72	104	–	–	29	0.103
CC[C@@H]1C(=O)N(C)c2cc(F)ccc2N1C(=O)c1ccc(O)cc1 [Example 1, (3R)-3-Ethyl-7-fluoro-4-(4-hydroxybenzoyl)-1-methyl-3,4-dihydroquinoxalin-2(1H)-one]	74	99	–	–	16	0.089
CC[C@H]1C(=O)N(C)c2cc(F)ccc2N1S(=O)(=O)c1ccc(O)cc1 [Example 29, (3S)-3-Ethyl-7-fluoro-4-[(4-hydroxyphenyl)sulfonyl]-1-methyl-3,4-dihydroquinoxalin-2(1H)-one]	1170	85	–	–	20	0.344
